The assay relates to Aβ42 (human neuroglioma H4 cells expressing human wild type APP751). Nature of the assay: In vitro cell screening assay with sandwich ELISA quantification of Aβ42 peptide. It counts as cell-based. The note with it: H4 cells stably expressing human wild type APP751; Pro293 chemically defined medium; compounds 0.003-10 μM; incubated overnight (16-18 h); supernatant Aβ42 by sandwich ELISA; normalized to DMSO and DAPT; read-out: Aβ42 H4 Prot Fre IC50. How it is done: Human neuroglioma H4 cells were transfected with a pcDNA3.1 plasmid expressing human wild type APP751 cDNA and a stable cell line was generated using G418 selection. Cells are plated at 15,000 cells/well in Costar 96-well plates and placed at 37° C. and 5% CO2. Six hours after plating, cells are washed three times with Pro293™ chemically defined medium, followed by addition of compounds (0.003-10 μM, final DMSO concentration of 0.33%). Plates were incubated overnight (16-18 h) and supernatant was removed for quantification of AP peptides by sandwich ELISA. Cytotoxicity was evaluated using Cell-Titer 96W AQueous One Solution Cell Proliferation Assay according to the manufacturer's protocol.
ELISA Measurements of Aβ Peptides
Aβ peptide levels were quantified by sandwich ELISA. 96-well plates are coated with C-terminal specific Aβ antibodies recognizing either Aβ37, Aβ38, Aβ40, Aβ42, Aβ43 or a N-terminal specific Aβ antibody to detect Aβ 1-x. Plates are then blocked overnight at 4° C. with 1% bovine serum albumin (BSA) in PBS-T. Plates are washed and 100 μl of cultured cell supernatant or synthetic Aβ peptide standards and a detection antibody (4G8-HRP) are applied to the blocked plate and incubated overnight at 4° C. The next day, wells are washed before the addition […] of detection substrate (TMB peroxidase). Plates are then read for absorbance at 450 nm on a Molecular Devices SpectraMax M5e Microplate Reader.
IC50 values were calculated from values reported as percent of DMSO controls using nonlinear regression, based on a sigmoidal dose-response (variable slope) model. GraphPAD software from Prism used for calculation.
As usually defined, the IC50 is the concentration that inhibits the measured activity by half. On to `COc1cc(Nc2ncc3c(n2)N(C)[C@@H](CC2CC2)CO3)ccc1-n1cnc(C)c1` [Example 217], for which the IC50 was determined as 53 nM.

For `Cc1cn(-c2ccc(Nc3ncc4c(n3)N(C)C(c3ccc(F)cc3F)CO4)cc2F)cn1` (single isomer, unassigned; (-)) [Example 69B], the IC50 is more than 3000 nM.

As for `COc1cc(Nc2ncc3c(n2)N(C)C(C2(C(F)(F)F)CC2)CO3)cnc1-n1cnc(C)c1` (single isomer, unassigned; (+)) [Example 247B], the half-inhibitory concentration (IC50) was found to be 5 nM. `Cc1cc(-c2ccc(Nc3ncc4c(n3)N(C)C(c3cc(F)cc(F)c3)CO4)cc2F)ccn1` (single isomer, unassigned; (+)) [Example 41A]: the IC50 was determined as 77 nM.

As for `Cc1cc(-c2ccc(Nc3ncc4c(n3)N(C)C(c3cc(F)c(F)c(F)c3)CO4)cc2)ccn1` (single isomer, unassigned; (+)) [Example 37A], the IC50 amounted to 59 nM. In the case of `Cc1cn(-c2ccc(Nc3ncc4c(n3)N(C)C(c3cc(F)cc(F)c3)CO4)cc2C(F)F)cn1` (single isomer, unassigned; (+)) [Example 222A] it was 361 nM. Consider `Cc1cc(-c2ccc(Nc3ncc4c(n3)N(C)C(c3ccccc3)CO4)cc2)ccn1` (racemic) [Example 24], for which the IC50 is 155 nM.

Take `COc1cc(Nc2ncc3c(n2)N2CCC(F)(F)C2CO3)ccc1-n1cnc(C)c1` (single isomer, unassigned; (+)) [Example 304B, (+)-7,7-difluoro-N-(3-methoxy-4-(4-methyl-1H-imidazol-1-yl)phenyl)-6a, 7,8,9-tetrahydro-6H-pyrimido [5,4-b] pyrrolo [1,2-d] [1, 4] oxazin-2-amine]: the IC50 stood at 75 nM.

On to `COc1cc(Nc2ncc3c(n2)N(C)[C@@H](C2CC2)CO3)cnc1-n1cnc(C)c1` [Example 225], for which the IC50 amounted to 33 nM. Take `COc1cc(Nc2ncc3c(n2)N(C)[C@@H](c2ccccc2)CO3)ccc1-c1ccnc(C)c1` [Example 21B, (S)—N-(3-methoxy-4-(2-methylpyridin-4-yl)phenyl)-8-methyl-7-phenyl-7,8-dihydro-6H-pyrimido[5,4-b][1,4]oxazin-2-amine]: the IC50 stood at 40 nM. In the case of `COc1cc(Nc2ncc3c(n2)N(C)C(c2ccccc2Cl)CO3)ccc1-n1cnc(C)c1` (racemic) [Example 51] it was 32 nM; in that of `Cc1cn(-c2ccc(Nc3ncc4c(n3)N(C)C(c3cc(F)cc(F)c3)CO4)cc2C#N)cn1` (single isomer, unassigned; (-)) [Example 203B, (−)-5-((7-(3,5-difluorophenyl)-8-methyl-7,8-dihydro-6H-pyrimido [5,4-b] [1, 4]oxazin-2-yl)amino)-2-(4-methyl-1H-imidazol-1-yl) benzonitrile], 210 nM. In the case of `COc1nc(Nc2ncc3c(n2)N(C)C(c2cc(F)cc(F)c2)CO3)ccc1-c1ccnc(C)n1` (single isomer, unassigned; (-)) [Example 183B] it was more than 3000 nM; in that of `Cc1cn(-c2ccc(Nc3ncc4c(n3)N3CCC[C@@]3(C)CO4)cc2F)cn1` [Example 292, (S)-N-(3-fluoro-4-(4-methyl-1H-imidazol-1-yl)phenyl)-6a-methyl-6a, 7,8,9-tetrahydro-6H-pyrimido [5,4-b] pyrrolo [1,2-d] [1, 4] oxazin-2-amine], 438 nM. In the case of `COc1cc(Nc2ncc3c(n2)N(C)C(c2cc(F)c(F)cc2Cl)CO3)ccc1-n1cnc(C)c1` (single isomer, unassigned; (+)) [Example 103A] it was 19 nM; in that of `COc1cc(Nc2ncc3c(n2)N(C)C(c2cc(F)cc(F)c2)CO3)ccc1-n1cnc(Cl)c1` (single isomer, unassigned; (-)) [Example 204A], 433 nM. With `COc1cc(Nc2ncc3c(n2)N(C)C(c2cc(F)c(F)cc2F)CO3)cnc1-n1cnc(C)c1` (single isomer, unassigned; (-)) [Example 181A], the concentration for half-maximal inhibition (IC50) worked out at 9 nM. In the case of `Cc1cn(-c2ccc(Nc3ncc4c(n3)N(C)C(c3cc(F)c(F)c(F)c3)CO4)cc2F)cn1` (single isomer, unassigned; (+)) [Example 118A] it was 29 nM; in that of `COc1cc(Nc2ncc3c(n2)N(C)C(c2cc(Cl)ccc2C(F)(F)F)CO3)ccc1-n1cnc(C)c1` (single isomer, unassigned; (-)) [Example 165B], 79 nM; in that of `Cc1cc(-c2ccc(Nc3ncc4c(n3)N(C)C(c3ccccc3)CO4)cc2F)ccn1` (racemic) [Example 27], 374 nM.

Turning to `COc1cc(Nc2ncc3c(n2)N(C)C(c2ccc(F)cc2C(F)(F)F)CO3)ccc1-n1cnc(C)c1` (single isomer, unassigned; (+)) [Example 94B], the concentration for half-maximal inhibition (IC50) amounted to 29 nM. Consider `Cc1cn(-c2ccc(Nc3ncc4c(n3)N(C)C(Cc3ccccc3)CO4)cc2F)cn1` (single isomer, unassigned; (+)) [Example 59A], for which the IC50 came to 81 nM.

For the compound `COc1cc(Cl)c(C2COc3cnc(Nc4ccc(-n5cnc(C)c5)c(OC)c4)nc3N2C)cc1Cl` (single isomer, unassigned; (-)) [Example 174A], the IC50 stood at 150 nM. For `Cc1cc(-c2ccc(Nc3ncc4c(n3)N(C)C(Cc3ccccc3)CO4)cc2F)ccn1` (single isomer, unassigned; (-)) [Example 57B], the half-maximal inhibitory concentration (IC50) was 880 nM. Turning to `Cc1cn(-c2ccc(Nc3ncc4c(n3)N(C)C(C)CO4)cc2F)cn1` (single isomer, unassigned; (+)) [Example 108B], the IC50 was determined as 108 nM. In the case of `COc1nc(Nc2ncc3c(n2)N(C)C(C)CO3)ccc1-c1cnn(C)c1` (racemic) [Example 195] it was more than 3000 nM. In the case of `COc1ccc(C)c(C2COc3cnc(Nc4ccc(-n5cnc(C)c5)c(OC)c4)nc3N2C)c1` (racemic) [Example 90] it was 27 nM; in that of `Cc1cn(-c2ccc(Nc3ncc4c(n3)N(C)C(c3cc(F)cc(F)c3)CO4)cc2OC(F)(F)F)cn1` (single isomer, unassigned; (-)) [Example 223A], more than 3000 nM. In the case of `COc1cc(Nc2ncc3c(n2)N(C)C(c2ccc(Cl)cc2C(F)(F)F)CO3)ccc1-c1ccnc(C)c1` (single isomer, unassigned; (-)) [Example 107A] it was 422 nM; in that of `Cc1cc(-c2ccc(Nc3ncc4c(n3)N(C)C(c3cc(F)cc(F)c3)CO4)cc2)ccn1` (single isomer, unassigned; (+)) [Example 28B], 60 nM. With `COc1cc(Nc2ncc3c(n2)N(C)C(c2ccccc2C)CO3)ccc1-n1cnc(C)c1` (single isomer, unassigned; (+)) [Example 31B], the half-inhibitory concentration (IC50) came to 29.6 nM. In the case of `COc1cc(Nc2ncc3c(n2)N2CCCC2CO3)ccc1-n1cnc(C)c1` (single isomer, unassigned; (+)) [Example 290B, (+)-N-(3-methoxy-4-(4-methyl-1H-imidazol-1-yl)phenyl)-6a, 7,8,9-tetrahydro-6H-pyrimido [5,4-b] pyrrolo [1,2-d] [1, 4] oxazin-2-amine] it was 151 nM; in that of `COc1cc(Nc2ncc3c(n2)N(C)C(c2cc(F)c(F)cc2F)CO3)ccc1-n1cnc(C)c1` (single isomer, unassigned; (+)) [Example 97B], 13 nM; in that of `Cc1cn(-c2ccc(Nc3ncc4c(n3)N(C)C(c3ccc(Cl)cc3Cl)CO4)cc2F)cn1` (single isomer, unassigned; (+)) [Example 96A], 76 nM. In the case of `COc1cc(Nc2ncc3c(n2)N(C)[C@@H](C(C)(C)C)CO3)cnc1-n1cnc(C)c1` [Example 246] it was 24 nM. In the case of `Cc1cc(-c2ccc(Nc3ncc4c(n3)N(C)C(c3ccccc3C)CO4)cc2)ccn1` (racemic) [Example 29] it was 297 nM. On to `Cc1cc(-c2ccc(Nc3ncc4c(n3)N(C)C(c3ccccc3)CO4)cc2)ccn1` (single isomer, unassigned; (-)) [Example 24B], for which the 50% inhibitory concentration (IC50) came to 1020 nM. In the case of `COc1cc(Nc2ncc3c(n2)N(C)C(c2cc(F)cc(F)c2)CO3)cnc1-n1cnc(C)c1` (single isomer, unassigned; (+)) [Example 189A] it was 13 nM; in that of `COc1cc(Nc2ncc3c(n2)N(C)C(Cc2ccccc2)CO3)ccc1-c1ccnc(C)c1` (single isomer, unassigned; (+)) [Example 68A], 50 nM. In the case of `COc1cc(Nc2ncc3c(n2)N(C)C(c2cc(F)c(F)c(F)c2)CO3)cnc1-n1cnc(C)c1` (single isomer, unassigned; (+)) [Example 182A] it was 13 nM; in that of `COc1cc(Nc2ncc3c(n2)N2CCCC2CO3)ccc1-n1cnc(C)c1` (single isomer, unassigned; (-)) [Example 290A, (−)-N-(3-methoxy-4-(4-methyl-1H-imidazol-1-yl)phenyl)-6a, 7,8,9-tetrahydro-6H-pyrimido [5,4-b] pyrrolo [1,2-d] [1, 4] oxazin-2-amine], 71 nM; in that of `COc1cc(Nc2ncc3c(n2)N(C)[C@@H](C2CCC2)CO3)cnc1-n1cnc(C)c1` [Example 235], 17 nM.

For the origin of these results see patent US9771378B2 (Denali Therapeutics, Inc., priority 2014, dated 2017).
